Laboratory results published in patent US9695205B2, “Amide compounds for treatment of complement mediated disorders” (Achillion Pharmaceuticals, Inc., priority 2014, dated 2017).

Biological target: Human factor D (Homo sapiens (Human), UniProt P00746)
Assay: Human Factor D Assay
Assay type: biochemical
Conditions: Human factor D 80 nM, substrate Z-L-Lys-SBzl and DTNB 100 μM each, pH 7.5
Procedure: Example 14. Human Factor D Assay
Human factor D (purified from human serum, Complement Technology, Inc.) at 80 nM final concentration is incubated with test compound at various concentrations for 5 minutes at room temperature in 50 mM Tris, 1M NaCl, pH 7.5. A synthetic substrate Z-L-Lys-SBzl and DTNB (Ellman's reagent) are added to final concentrations of 100 μM each. The increase in color is recorded at OD405 nm in a microplate in kinetic mode over 30 minutes with 30 second time points in a spectrofluorimeter. IC50 values are calculated by non-linear regression from the percentage of inhibition of complement factor D activity as a function of test compound concentration.

Human factor D, sequence (P00746 26-253): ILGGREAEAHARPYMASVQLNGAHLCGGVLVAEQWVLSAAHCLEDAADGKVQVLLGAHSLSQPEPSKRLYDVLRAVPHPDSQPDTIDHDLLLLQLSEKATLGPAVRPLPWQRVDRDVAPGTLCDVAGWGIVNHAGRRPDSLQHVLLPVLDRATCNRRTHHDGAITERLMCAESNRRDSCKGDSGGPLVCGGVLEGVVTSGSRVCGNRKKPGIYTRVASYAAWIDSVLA

SMILES	IC50
NC(=O)c1nn(CC(=O)N2C[C@H](F)C[C@H]2C(=O)Nc2cccc(-c3ncccc3Cl)c2F)c2ccc(NC(=O)N3CCCC(F)(F)C3)cc12 [Compound 29, 1-(2-((2S,4R)-2-(3-(3-chloropyridin-2-yl)-2-fluorophenylcarbamoyl)-4-fluoropyrrolidin-1-yl)-2-oxoethyl)-5-(3,3-difluoropiperidine-1-carboxamido)-1H-indazole-3-carboxamide]	< 1 µM
CC(=O)c1cn(CC(=O)N2C[C@H](F)C[C@H]2C(=O)Nc2cccc(-c3ccccc3Cl)c2F)c2ccc(NC(=O)C3CCC(F)(F)C3)cc12 (stereo partly drawn) [Compound 35, (2S,4R)-1-(2-(3-acetyl-5-(3,3-difluorocyclopentanecarboxamido)-1H-indol-1-yl)acetyl)-N-(2′-chloro-2-fluorobiphenyl-3-yl)-4-fluoropyrrolidine-2-carboxamide]	< 1 µM
CC(=O)c1cn(CC(=O)N2C[C@H](F)C[C@H]2C(=O)NCc2cccc(Cl)c2F)c2ccc(C(=O)N3CCCC(F)(F)C3)cc12 [Compound 40, (2S,4R)-1-(2-(3-acetyl-5-(3,3-difluoropiperidine-1-carbonyl)-1H-indol-1-yl)acetyl)-N-(3-chloro-2-fluorobenzyl)-4-fluoropyrrolidine-2-carboxamide]	< 1 µM
COC(=O)C1CCN(C(=O)c2ccc3c(C(C)=O)cn(CC(=O)N4C[C@H](F)C[C@H]4C(=O)NCc4cccc(Cl)c4F)c3c2)C1 (stereo partly drawn) [Compound 51, methyl 1-(3-acetyl-1-(2-((2S,4R)-2-(3-chloro-2-fluorobenzylcarbamoyl)-4-fluoropyrrolidin-1-yl)-2-oxoethyl)-1H-indole-6-carbonyl)pyrrolidine-3-carboxylate]	< 1 µM
CC(=O)c1cn(CC(=O)N2[C@@H]3C[C@@H]3C[C@H]2C(=O)Nc2cccc(OC(F)(F)F)c2F)c2ccc(NC(=O)NC3CC3)cc12 [Compound 11, (1R,3S,5R)-2-(2-(3-acetyl-5-(3-cyclopropylureido)-1H-indol-1-yl)acetyl)-N-(2-fluoro-3-(trifluoromethoxy)phenyl)-2-azabicyclo[3.1.0]hexane-3-carboxamide]	< 1 µM
CC(=O)c1cn(CC(=O)N2C[C@H](F)C[C@H]2C(=O)NCc2cccc(Cl)c2F)c2cc(C(=O)N3CCC(C(=O)O)C3)ccc12 (stereo partly drawn) [Compound 52, 1-(3-acetyl-1-(2-((2S,4R)-2(3-chloro-2-fluorobenzylcarbamoyl)-4-fluoropyrrolidin-1-yl)-2-oxoethyl)-1H-indole-6-carbonyl) pyrrolidine-3-carboxylic acid]	< 1 µM
NC(=O)c1nn(CC(=O)N2C[C@H](F)C[C@H]2C(=O)Nc2cccc(-c3ccccc3Cl)c2F)c2ccc(NC(=O)N3CCC(F)(F)C3)cc12 [Compound 30, 1-(2-((2S,4R)-2-(2′-chloro-2-fluorobiphenyl-3-ylcarbamoyl)-4-fluoropyrrolidin-1-yl)-2-oxoethyl)-5-(3,3-difluoropyrrolidine-1-carboxamido)-1H-indazole-3-carboxamide]	< 1 µM
CC(=O)c1cn(CC(=O)N2C[C@H](F)C[C@H]2C(=O)NCc2cccc(Cl)c2F)c2ccc(C(=O)NC3CC3)cc12 [Compound 41, 3-acetyl-1-(2-((2S,4R)-2-(3-chloro-2-fluorobenzylcarbamoyl)-4-fluoropyrrolidin-1-yl)-2-oxoethyl)-N-cyclopropyl-1H-indole-5-carboxamide]	< 1 µM
CC(=O)c1cn(CC(=O)N2C[C@H](F)C[C@H]2C(=O)NCc2cccc(Cl)c2F)c2cc(C(=O)NS(C)(=O)=O)ccc12 [Compound 43, 3-acetyl-1-(2-((2S,4R)-2-(3-chloro-2-fluorobenzylcarbamoyl)-4-fluoropyrrolidin-1-yl)-2-oxoethyl)-N-(methylsulfonyl)-1H-indole-6-carboxamide]	< 1 µM
CC(=O)c1cn(CC(=O)N2C[C@H](F)C[C@H]2C(=O)NCc2cccc(Cl)c2F)c2cc(C(=O)NS(=O)(=O)C3CC3)ccc12 [Compound 48, 3-acetyl-1-(2-((2S,4R)-2-(3-chloro-2-fluorobenzylcarbamoyl)-4-fluoropyrrolidin-1-yl)-2-oxoethyl)-N-(cyclopropylsulfonyl)-1H-indole-6-carboxamide]	< 1 µM
CC(=O)c1cn(CC(=O)N2C[C@H](F)C[C@H]2C(=O)Nc2cccc(-c3ccccc3Cl)c2F)c2ccc(NC(=O)N3CCCC(F)(F)C3)cc12 [Compound 18, N-(3-acetyl-1-(2-((2S,4R)-2-(2′-chloro-2-fluorobiphenyl-3-ylcarbamoyl)-4-fluoropyrrolidin-1-yl)-2-oxoethyl)-1H-indol-5-yl)-3,3-difluoropiperidine-1-carboxamide]	< 1 µM
CC(=O)c1cn(CC(=O)N2C[C@H](F)C[C@H]2C(=O)NCc2cccc(Cl)c2F)c2ccc(NC(=O)NC(C)C)cc12 [Compound 6, (2S,4R)-1-(2-(3-acetyl-5-(3-isopropylureido)-1H-indol-1-yl)acetyl)-N-(3-chloro-2-fluorobenzyl)-4-fluoropyrrolidine-2-carboxamide]	< 1 µM
CC(=O)c1cn(CC(=O)N2[C@@H]3C[C@@H]3C[C@H]2C(=O)N[C@H](C)c2cccc(Cl)c2F)c2ccc(NC(=O)NC3CC3)cc12 [Compound 5, (1R,3S,5R)-2-(2-(3-acetyl-5-(3-cyclopropylureido)-1H-indol-1-yl)acetyl)-N-((R)-1-(3-chloro-2-fluorophenyl)ethyl)-2-azabicyclo[3.1.0]hexane-3-carboxamide]	< 1 µM
NC(=O)c1nn(CC(=O)N2C[C@H](F)C[C@H]2C(=O)Nc2cccc(-c3ccccc3Cl)c2F)c2ccc(NC(=O)N3CCCC(F)(F)C3)cc12 [Compound 24, 1-(2-((2S,4R)-2-(2′-chloro-2-fluorobiphenyl-3-ylcarbamoyl)-4-fluoropyrrolidin-1-yl)-2-oxoethyl)-5-(3,3-difluoropiperidine-1-carboxamido)-1H-indazole-3-carboxamide]	< 1 µM
CC(=O)c1cn(CC(=O)N2C[C@H](F)C[C@H]2C(=O)NCc2cccc(Cl)c2F)c2ccc(NC(=O)N3CCC(F)(F)C3)cc12 [Compound 13]	< 1 µM
CC(=O)c1cn(CC(=O)N2C[C@H](F)C[C@H]2C(=O)NCc2cccc(Cl)c2F)c2ccc(NC(=O)N3CCCC(F)(F)C3)cc12 [Compound 16, N-(3-acetyl-1-(2-((2S,4R)-2-(3-chloro-2-fluorobenzylcarbamoyl)-4-fluoropyrrolidin-1-yl)-2-oxoethyl)-1H-indol-5-yl)-3,3-difluoropiperidine-1-carboxamide]	< 1 µM
CC(=O)c1cn(CC(=O)N2C[C@H](F)C[C@H]2C(=O)NCc2cccc(Cl)c2F)c2cc(C(=O)N[C@H]3CCN(C(C)=O)C3)ccc12 [Compound 46, 3-acetyl-N-((S)-1-acetylpyrrolidin-3-yl)-1-(2-((2S,4R)-2-(3-chloro-2-fluorobenzylcarbamoyl)-4-fluoropyrrolidin-1-yl)-2-oxoethyl)-1H-indole-6-carboxamide]	< 1 µM
CC(=O)c1cn(CC(=O)N2C[C@H](F)C[C@H]2C(=O)NCc2cccc(Cl)c2F)c2ccc(NC(=O)NC3CC3)cc12 [Compound 1, (2S,4R)-1-(2-(3-acetyl-5-(3-cyclopropylureido)-1H-indol-1-yl)acetyl)-N-(3-chloro-2-fluorobenzyl)-4-fluoropyrrolidine-2-carboxamide]	< 1 µM
CC(=O)c1cn(CC(=O)N2[C@@H]3C[C@@H]3C[C@H]2C(=O)NCc2cccc(Cl)c2F)c2ccc(NC(=O)NC3CC3)cc12 [Compound 3, (1R,3S,5R)-2-(2-(3-acetyl-5-(3-cyclopropylureido)-1H-indol-1-yl)acetyl)-N-(3-chloro-2-fluorobenzyl)-2-azabicyclo[3.1.0]hexane-3-carboxamide]	< 1 µM
NC(=O)c1nn(CC(=O)N2C[C@H](F)C[C@H]2C(=O)Nc2cccc(Br)n2)c2ccc(NC(=O)N3CCCC(F)(F)C3)cc12 [Compound 33, 1-(2-((2S,4R)-2-(6-bromopyridin-2-ylcarbamoyl)-4-fluoropyrrolidin-1-yl)-2-oxoethyl)-5-(3,3-difluoropiperidine-1-carboxamido)-1H-indazole-3-carboxamide]	< 1 µM
CC(=O)c1cn(CC(=O)N2C[C@H](F)C[C@H]2C(=O)NCc2cccc(Cl)c2F)c2cc(C(=O)N[C@H]3CCNC3)ccc12 [Compound 45, 3-acetyl-1-(2-((2S,4R)-2-(3-chloro-2-fluorobenzylcarbamoyl)-4-fluoropyrrolidin-1-yl)-2-oxoethyl)-N-((S)-pyrrolidin-3-yl)-1H-indole-6-carboxamide]	< 1 µM
CC(=O)c1cn(CC(=O)N2C[C@H](F)C[C@H]2C(=O)NCc2cccc(Cl)c2F)c2ccc(NC(=O)NCc3nn[nH]n3)cc12 [Compound 2, (2S,4R)-1-(2-(5-(3-((2H-tetrazol-5-yl)methyl)ureido)-3-acetyl-1H-indo-1-yl)acetyl)-N-(3-chloro-2-fluorobenzyl)-4-fluoropyrrolidine-2-carboxamide]	< 1 µM
CC(=O)c1cn(CC(=O)N2C[C@H](F)C[C@H]2C(=O)NCc2cccc(Cl)c2F)c2ccc(NC(=O)NC3(C)CC3)cc12 [Compound 4, (2S,4R)-1-(2-(3-acetyl-5-(3-(1-methylcyclopropyl)ureido)-1H-indol-1-yl)acetyl)-N-(3-chloro-2-fluorobenzyl)-4-fluoropyrrolidine-2-carboxamide]	< 1 µM
CC(=O)c1cn(CC(=O)N2C[C@H](F)C[C@H]2C(=O)Nc2cccc(OC(F)(F)F)c2F)c2ccc(NC(=O)N3CCCC(F)(F)C3)cc12 [Compound 17, N-(3-acetyl-1-(2-((2S,4R)-4-fluoro-2-(2-fluoro-3-(trifluoromethoxy)phenylcarbamoyl)pyrrolidin-1-yl)-2-oxoethyl)-1H-indol-5-yl)-3,3-difluoropiperidine-1-carboxamide]	< 1 µM
